29 compounds from US9198429B2, “Heterocyclic alkanol-derivatives” (BAYER INTELLECTUAL PROPERTY GMBH, priority 2011, dated 2015) can be followed below.

The subject of data set [1] is Pyrenophora teres. The experiment in a line: Example F: Pyrenophora teres test (barley)/protective, comparison with EP-A 409 418. The data set is classed as in vivo. Particulars: application rate 500 ppm, protective, evaluation 7-9 days after inoculation.
The conditions of data set [2]: for log P [a]: pH 2.3; for log P [b]: pH 2.7; for log P [c]: pH 7.8.
For data set [3], the system named is Uromyces appendiculatus. The experiment in a line: Example H: Uromyces test (beans)/protective. The data set is classed as in vivo. To be noted: application rate 10 ppm, protective, evaluation 10 days after inoculation. On the procedure:
To test for protective activity, young plants are sprayed with the preparation of active compound at the stated application rate. After the spray coating has dried on, the plants are inoculated with an aqueous spore suspension of bean rust (Uromyces appendiculatus) and then remain in an incubation cabin at 100% relative atmospheric humidity and 20° C. for one day. The plants are then placed in a greenhouse at 90% relative atmospheric humidity and a temperature of about 21° C. […]

The test system of data set [4] is Alternaria solani. The experiment in a line: Example B: Alternaria test (tomato)/protective. Format: in vivo. Particulars: 500 ppm, tomato plants, protective, evaluation 7 days after inoculation.
Data set [5] in a line: physchem.
In data set [6] the test system is Sphaerotheca fuliginea. The experiment in a line: Example A: Sphaerotheca test (cucumber)/protective. Format: in vivo. Particulars: 500 ppm, cucumber plants, protective, evaluation 7 days after inoculation.
Data set [7] relates to Pyrenophora teres. The experiment in a line: Example C: Pyrenophora teres test (barley)/protective. Format: in vivo. To be noted: 500 ppm, protective, evaluation 7-9 days after inoculation.
For data set [8], the system named is Pyricularia oryzae. Format: in vivo. To be noted: application rate 1000 ppm, rice plants, protective, evaluation 6 days after inoculation.
Data set [9] has as its system Sphaerotheca fuliginea. The experiment in a line: Example E: Sphaerotheca test (cucumber)/protective, comparison with EP-A 395 175. Format: in vivo. Particulars: application rate 100 ppm, cucumber plants, protective, evaluation 7 days after inoculation.
Data set [10] can be described thus: logP by HPLC on reversed-phase columns (EEC directive 79/831 Annex V.A8).

Several values for one entry are separate records, joined by “and”; a condition that tells them apart may be missing. Identical values can stand only once.

Regarding `CC(C)(C)C(O)(CCc1ccc(Cl)cc1)c1cncs1` (stereo not drawn) [drawing 36, reference compound], in data set [1], the Efficacy in % turned out to be 0%.

`CC(c1ccc(F)cc1Cl)C(O)(c1cnc(Cl)s1)C(C)(CF)CF` (stereo not drawn) [Compound 26]: in [2], the “log P [a]” value is 4.51^[a]. In turn, `CC(C)(C)C(O)(CCc1ccc(Cl)cc1)c1cncs1` (stereo not drawn) [drawing 41, reference compound] showed an Efficacy in % in [3] of 0%. `CC(C)(Cc1ccc(OC(F)(F)F)cc1)C(C)(O)c1cncs1` (stereo not drawn) [Compound 17]: the “Efficacy (%)” value in [4] stood at 90%. The chromatographic logP is a lipophilicity value derived from retention on a column. High values mean higher lipophilicity, low ones lower lipophilicity. In turn, `CC(C)(Cc1ccc(Cl)cc1)C(C)(O)c1cncs1` (stereo not drawn) [Compound 22, 4-(4-chlorophenyl)-3,3-dimethyl-2-(1,3-thiazol-5-yl)butan-2-ol] yielded a chromatographic logP in data set [5] (pH 2.7) of 3.11. The Efficacy in % came to 70% in data set [1], 80% in [3] and 78% in [8]. Further, the “Efficacy (%)” value in data set [6] is 75%; in data set [7], 70% and 90%. Turning to `CC(c1ccc(F)cc1Cl)C(O)(c1cncs1)C(C)(CF)CF` (stereo not drawn) [Compound 25], the “log P [b]” value in data set [2] is 3.46^[b]. In addition, in data set [6], the “Efficacy (%)” value is on record as 93%.

For `OC(c1ccc(Br)cc1)(c1cnco1)C1(Oc2ccccc2)CC1` (stereo not drawn) [Compound 5], in data set [2], the “log P [b]” value amounted to 3.51 and the “log P [c]” value was determined as 3.48. With `OC(c1cnc(Cl)s1)(c1ccc(F)cc1F)C1(Oc2ccc(F)cc2F)CC1` (stereo not drawn) [Compound 12, (2-chloro-1,3-thiazol-5-yl)[1-(2,4-difluorophenoxy)cyclopropyl](2,4-difluorophenyl)methanol], the chromatographic logP came out at 4.29 in [5] (pH 2.7) and 4.23 in data set [5] (pH 7.8). With `CC(C)(C)C(O)(c1cncs1)C(C)(C)Oc1ccc(Br)cc1` (stereo not drawn) [Compound 15], the “log P [b]” value in [2] is 4.27^[b]. The “Efficacy (%)” value in data set [6] turned out to be 99%. `OC(c1cnco1)(c1ccc(F)cc1F)C1(Oc2ccc(F)cc2F)CC1` (stereo not drawn) [Compound 4]: in [2], the “log P [b]” value is 3.07 and the “log P [c]” value was 3.1.

As to `CC(C)(Cc1ccc(F)cc1Cl)C(C)(O)c1cncs1` (stereo not drawn) [Compound 19], in data set [2], the “log P [b]” value was 3.14^[b].

In data set [8], `CC(C)(C)C(O)(CCc1ccc(Cl)cc1)c1cncs1` (stereo not drawn) [drawing 38] yielded an Efficacy in % of 22%. As to `CC(C)(C)C(O)(c1cncs1)C(C)(C)Oc1ccc(I)cc1F` (stereo not drawn) [Compound 14], in data set [2], the “log P [b]” value was 4.7^[b]. Consider `COc1ccc(OC(C)(C)C(O)(c2cncs2)C(C)(C)C)cc1` (stereo not drawn) [Compound 13], for which the “log P [b]” value in [2] is 3.49^[b]. Also, in [7], the “Efficacy (%)” value came to 75%. Compound `CC(C)(C)C(O)(COc1ccc(Cl)cc1)c1cncs1` (stereo not drawn) registered an Efficacy in % in data set [8] of 33%. Regarding `OC(Cc1cnc(Cl)s1)(c1ccc(Cl)cc1)C1(Oc2ccc(F)cc2)CC1` (stereo not drawn) [Compound 3, 1-(4-chlorophenyl)-2-(2-chloro-1,3-thiazol-5-yl)-1-[1-(4-fluorophenoxy)cyclopropyl]ethanol], the chromatographic logP came to 4.55 in data set [5] (pH 2.7) and 4.53 in [5] (pH 7.8). As to `OC(c1cncs1)(c1ccc(F)cc1F)C1(Oc2ccc(F)cc2F)CC1` (stereo not drawn) [Compound 11, [1-(2,4-difluorophenoxy)cyclopropyl](2,4-difluorophenyl)1,3-thiazol-5-ylmethanol], the chromatographic logP was 3.35 in data set [5] (pH 2.7) and 3.3 in data set [5] (pH 7.8). The “Efficacy (%)” value in data set [6] is 95%. For the compound `CC(C)(Cc1ccc(I)cc1)C(C)(O)c1cncs1` (stereo not drawn) [Compound 20], the “Efficacy (%)” value in data set [4] was 90%. In addition, in data set [2], the “log P [b]” value was 3.45^[b].

`CC(C)(C)C(O)(COc1ccc(Cl)cc1)Cc1cncs1` (stereo not drawn): the Efficacy in % in data set [9] came out at 5%. Turning to `OC(c1ccc(Br)cc1)(c1cnco1)C1(Oc2ccc(F)cc2)CC1` (stereo not drawn) [Compound 7], in [2], the “log P [b]” value amounted to 3.54 and the “log P [c]” value is reported as 3.52.

For `CC(C)(Cc1ccc(C(F)(F)F)cc1)C(C)(O)c1cncs1` (stereo not drawn) [Compound 21], the “log P [b]” value in [2] is 3.34^[b]. Moreover, the “Efficacy (%)” value in [7] worked out at 70%.

For `CC(C)(C)C(O)(c1cncs1)C(C)(C)Oc1ccc(Cl)cc1` (stereo not drawn) [Compound 16, 2-(4-chlorophenoxy)-2,4,4-trimethyl-3-(1,3-thiazol-5-yl)pentan-3-ol], the chromatographic logP in [5] (pH 2.7) came to 4.13. Also, the “Efficacy (%)” value in [6] worked out at 100%.

For `OC(c1ccc(Br)cc1)(c1cnco1)C1(Oc2ccc(F)cc2F)CC1` (stereo not drawn) [Compound 6], in [2], the “log P [b]” value was 3.59 and the “log P [c]” value is 3.56. `OC(Cc1cncs1)(c1ccc(Cl)cc1)C1(Oc2ccc(F)cc2)CC1` (stereo not drawn) [Compound 2, 1-(4-chlorophenyl)-1-[1-(4-fluorophenoxy)cyclopropyl]-2-(1,3-thiazol-5-yl)ethanol] registered an Efficacy in % in data set [9] of 93%. Also, the chromatographic logP stood at 3.62 in data set [5] (pH 2.7) and 3.65 in data set [5] (pH 7.8). Further, the “Efficacy (%)” value in [6] was determined as 100%. As for `OC(c1ccc(Cl)cc1)(c1cnco1)C1(Oc2ccccc2)CC1` (stereo not drawn) [Compound 8, (4-chlorophenyl)(1,3-oxazol-5-yl)(1-phenoxycyclopropyl)methanol], the chromatographic logP in [5] (pH 2.7) worked out at 3.37; in data set [5] (pH 7.8), 3.43. On to `CC(C)(C)C(O)(CCc1ccc(Cl)cc1)Cc1cncs1` (stereo not drawn), for which, in data set [9], the Efficacy in % is listed as 8%. Turning to `CC(C)(Cc1ccc(Br)cc1)C(C)(O)c1cncs1` (stereo not drawn) [Compound 18], the “log P [b]” value in [2] was 3.22^[b]. `CC(C)[Si](c1ncc(C(O)(c2ccc(Cl)cc2)C2(Oc3ccccc3)CC2)o1)(C(C)C)C(C)C` (stereo not drawn) [Compound 9, (4-chlorophenyl)(1-phenoxycyclopropyl)[2-(triisopropylsilyl)-1,3-oxazol-5-yl]methanol]: the chromatographic logP in data set [10] (pH 2.7) and in [10] (pH 7.8) was 7.36 throughout.

Consider `CC(c1ccc(Cl)cc1Cl)C(O)(c1cncs1)C(C)(C)C` (stereo not drawn) [Compound 23], for which the “log P [a]” value in data set [2] is 4.4[a]. Moreover, in [6], the “Efficacy (%)” value was found to be 70%.
